Results reported in patent US11649232B2, “Synthetic dimeric cinchona alkaloids against cancer” (Ares Pharmaceuticals, LLC, priority 2021, dated 2023).
Read-outs that look alike come from different tables or passages of the source.

Tests used:
[1] = Flow cytometric Annexin V-FITC/PI apoptosis assay, combined data sets; type: cell-based; conditions: Homo sapiens, Raji, 24 or 48 hours treatment, 0.5-50 μM, read-out: estimated IC50 (apoptosis)
From the text: (§1) Cell lines and Apoptosis Assays. We used the human leukemia cell lines ALL-1 (Ph+ adult ALL, B-lineage), LOUCY (adult T-lineage ALL; ATCC® CRL-2629™), and RAJI (Burkitt's leukemia/lymphoma; ATCC®, CCL-86) as targets to evaluate the anti-leukemic activity of cinchona alkaloids. In vivo leukemia initiating xenograft clones capable of causing disseminated and fatal leukemia in NOD-SCID mice, derived from primary leukemia cells of 5 patients with relapsed ALL, and the aforementioned 3 leukemia cells lines were treated for 24 hours or 48 hours at 37° C. with cinchona alkaloids at increasing concentrations ranging from 0.5 μM to 50 μM. Controls cells were treated with vehicle (PBS).
Apoptotic death was monitored using multiparameter flow cytometry, as previously reported (Uckun, F. M. et al., British Journal of Haematology, 2011, 153:741-752; Uckun, F. M. et al., J Clin Invest., 2015, 125:1006-18). Controls included vehicle (PBS) treated cells (CON). Cells were analyzed for apoptosis using the standard quantitative flow cytometric apoptosis assay using the Annexin V-FITC Apoptosis Detection Kit from Sigma. The labeled cells were analyzed on a LSR II flow cytometer. The percent apoptosis was calculated using the formula: 100−100×(Percentage of non-apoptotic cells in test sample/Percentage of non-apoptotic cells in untreated control sample). […]

[2] = system: ALL-1 (Ph+ adult ALL, B-lineage) cell line; test: Flow cytometric Annexin V-FITC/PI apoptosis assay; type: cell-based, human; conditions: for IC50: Homo sapiens, read-out: IC50 (apoptosis)
From the text: as §1
(§2) Apoptotic death was monitored using multiparameter flow cytometry, as previously reported (Uckun, F. M. et al., British Journal of Haematology, 2011, 153:741-752; Uckun, F. M. et al., J Clin Invest., 2015, 125:1006-18). Controls included vehicle (PBS) treated cells (CON). Cells were analyzed for apoptosis using the standard quantitative flow cytometric apoptosis assay using the Annexin V-FITC Apoptosis Detection Kit from Sigma. The labeled cells were analyzed on a LSR II flow cytometer. The percent apoptosis was calculated using the formula: 100−100×(Percentage of non-apoptotic cells in test sample/Percentage of non-apoptotic cells in untreated control sample). The percentages for Annexin V FITC^−PI^− viable cells and Annexin V-FITC^+PI^+ advanced apoptotic cells for each sample are indicated in the respective quadrants of the depicted two-color fluorescence dot plots.
as §1, with “We” for “Cell lines and Apoptosis Assays. We”, “ARES-BI-C001453. […]” for “cinchona alkaloids.”, “ARES-BI-C001453” for “cinchona alkaloids”

[3] = system: LOUCY (adult T-lineage ALL) cell line; test: Flow cytometric Annexin V-FITC/PI apoptosis assay; type: cell-based, human; conditions: for IC50: Homo sapiens, read-out: IC50 (apoptosis)
From the text: as §1, §2
as §1, with “We” for “Cell lines and Apoptosis Assays. We”, “ARES-BI-C001453. […]” for “cinchona alkaloids.”, “ARES-BI-C001453” for “cinchona alkaloids”

[4] = system: RAJI (Burkitt's leukemia/lymphoma) cell line; test: Flow cytometric Annexin V-FITC/PI apoptosis assay; type: cell-based, human; conditions: for IC50: Homo sapiens, read-out: IC50 (apoptosis)
From the text: as §1, §2
as §1, with “We” for “Cell lines and Apoptosis Assays. We”, “ARES-BI-C001453. […]” for “cinchona alkaloids.”, “ARES-BI-C001453” for “cinchona alkaloids”

[5] = system: ALL-1 BCR-ABL/Ph+ B-lineage ALL cell line; test: Clonogenic assay (methylcellulose colony assay); type: cell-based, human; conditions: for in vitro colony formation by ALL-1 cells: 10 μM
Method: (§3) Clonogenic Assays. The cytotoxicity of cinchona alkaloids was tested against clonogenic human cancer cells was examined using a methylcellulose colony assay system, as described previously (Uckun, F. M. et al., J. Exp. Med., 1986, 163: 347-68; Uckun, F. M. et al., J. Clin. Invest., 1993, 91: 1044-1051). In brief, cells (10^5 cells/ml in RPMI-10% fetal bovine serum) were treated for 8 hours at 37° C. with cinchona alkaloids at varying concentrations. After treatment, cells were washed twice, and resuspended in clonogenic medium consisting of RPMI 1640 supplemented with 0.9% methylcellulose, 10% fetal bovine serum, and 50 μM 2-mercaptoethanol. Cells were plated at 5×10^4 cells/ml in RPMI 1640 supplemented with 10% fetal bovine serum, and 0.9% methylcellulose in duplicate 35-mm Petri dishes, and cultured for 7 days at 37° C. in a humidified 5% CO2 incubator. Subsequently, cancer cell colonies were enumerated on a grid using an inverted phase-contrast microscope of high optical resolution. Results were expressed as the % Inhibition=[1−(Number of colonies in compound-treated test cultures/Number of colonies in vehicle-treated control cultures)]×100.
as §3, with “cytotoxicity of synthetic dimeric cinchona alkaloids” for “cytotoxicity of cinchona alkaloids”

[6] = system: BT-20 triple-negative breast cancer cell line; test: Clonogenic assay (methylcellulose colony assay); type: cell-based, human
Method: as §3
as §3, with “cytotoxicity of synthetic dimeric cinchona alkaloids” for “cytotoxicity of cinchona alkaloids”

[7] = system: PC-3 castration-resistant prostate cancer cell line; test: Clonogenic assay (methylcellulose colony assay); type: cell-based, human; conditions: for inhibition at 3 µM / IC50 / inhibition at 1 µM / inhibition at 10 µM: Homo sapiens
Method: as §3
as §3, with “cytotoxicity of synthetic dimeric cinchona alkaloids” for “cytotoxicity of cinchona alkaloids”

[8] = system: BT-20 and PC-3 cells; test: Clonogenic assay, pooled 4 experiments (2 PC-3, 2 BT-20); type: cell-based, human
Method: as §3
as §3, with “cytotoxicity of synthetic dimeric cinchona alkaloids” for “cytotoxicity of cinchona alkaloids”

## CCC1(O)CCN2CCC1C[C@@H]2[C@@H](Oc1nnc(O[C@H](c2ccnc3ccc(OC)cc23)[C@@H]2N3CC[C@H]4C(O)(CC)CC243)c2ccccc12)c1ccnc2ccc(OC)cc12 (mixture of isomers) [ARES-BI-C001453]
[1]
  IC50: 8600 nM
[2]; ALL-1, side by side comparison
  IC50: 780 nM
[3]; LOUCY, side by side comparison
  IC50: 42 nM
[4]; RAJI, side by side comparison
  IC50: 8900 nM
[5]
  in vitro colony formation by ALL-1 cells: abrogated the in vitro colony formation
[5]; ALL-1 EXP#1, 1 μM
  Colonies/5 × 10^4 Cells: 27.5 Colonies/5 × 10^4 Cells
[5]; ALL-1 EXP#1, 3 μM
  Colonies/5 × 10^4 Cells: 32.0 Colonies/5 × 10^4 Cells
[5]; ALL-1 EXP#1, 10 μM
  Colonies/5 × 10^4 Cells: 0.0 Colonies/5 × 10^4 Cells
[5]; ALL-1 EXP#2, 1 μM
  Colonies/5 × 10^4 Cells: 99.5 Colonies/5 × 10^4 Cells
[5]; ALL-1 EXP#2, 3 μM
  Colonies/5 × 10^4 Cells: 14.5 Colonies/5 × 10^4 Cells
[5]; ALL-1 EXP#2, 10 μM
  Colonies/5 × 10^4 Cells: 0.0 Colonies/5 × 10^4 Cells
[5]; Homo sapiens, ALL-1 EXP#1, 1 μM
  inhibition at 1 µM: 91.5%
[5]; Homo sapiens, ALL-1 EXP#1, 3 μM
  inhibition at 3 µM: 90.1%
[5]; Homo sapiens, ALL-1 EXP#1, 10 μM
  inhibition at 10 µM: > 99.7%
[5]; Homo sapiens, ALL-1 EXP#2, 1 μM
  inhibition at 1 µM: 56.1%
[5]; Homo sapiens, ALL-1 EXP#2, 3 μM
  inhibition at 3 µM: 93.6%
[5]; Homo sapiens, ALL-1 EXP#2, 10 μM
  inhibition at 10 µM: > 99.6%
[5]; Homo sapiens, ALL-1, two independent experiments, non-linear regression, read-out: IC50, inhibition of clonogenic growth
  IC50: 290 nM
[6]; BT-20 EXP#1, 1 μM
  Colonies/5 × 10^4 Cells: 21.5 Colonies/5 × 10^4 Cells
[6]; BT-20 EXP#1, 3 μM
  Colonies/5 × 10^4 Cells: 10.0 Colonies/5 × 10^4 Cells
[6]; BT-20 EXP#1, 10 μM
  Colonies/5 × 10^4 Cells: 0.0 Colonies/5 × 10^4 Cells
[6]; BT-20 EXP#2, 1 μM
  Colonies/5 × 10^4 Cells: 40.0 Colonies/5 × 10^4 Cells
[6]; BT-20 EXP#2, 3 μM
  Colonies/5 × 10^4 Cells: 9.5 Colonies/5 × 10^4 Cells
[6]; BT-20 EXP#2, 10 μM
  Colonies/5 × 10^4 Cells: 1.0 Colonies/5 × 10^4 Cells
[6]; Homo sapiens, BT-20, BT-20 EXP#1, 1 μM
  inhibition at 1 µM: 78%
[6]; Homo sapiens, BT-20, BT-20 EXP#1, 3 μM
  inhibition at 3 µM: 89.8%
[6]; Homo sapiens, BT-20, BT-20 EXP#1, 10 μM
  inhibition at 10 µM: > 98.9%
[6]; Homo sapiens, BT-20, BT-20 EXP#2, 1 μM
  inhibition at 1 µM: 64.9%
[6]; Homo sapiens, BT-20, BT-20 EXP#2, 3 μM
  inhibition at 3 µM: 91.7%
[6]; Homo sapiens, BT-20, BT-20 EXP#2, 10 μM
  inhibition at 10 µM: 99.1%
[6]; Homo sapiens, BT-20, two independent experiments, non-linear regression, read-out: IC50, inhibition of clonogenic growth
  IC50: 369 nM
[7]; PC-3, PC3 cells, 3 μM, read-out: inhibition of clonogenic growth
  inhibition at 3 µM: > 99%
[7]; PC-3, PC3 cells, read-out: estimated IC50, clonogenic growth
  IC50: 129 nM
[7]; PC-3 EXP#1, 1 μM
  inhibition at 1 µM: 91.9%
  Colonies/5 × 10^4 Cells: 15.0 Colonies/5 × 10^4 Cells
[7]; PC-3 EXP#1, 3 μM, read-out: % Inhibition
  inhibition at 3 µM: 99.7%
[7]; PC-3 EXP#1, 10 μM
  inhibition at 10 µM: 99.5%
  Colonies/5 × 10^4 Cells: 1.0 Colonies/5 × 10^4 Cells
[7]; PC-3 EXP#2, 1 μM
  inhibition at 1 µM: 95.6%
  Colonies/5 × 10^4 Cells: 7.0 Colonies/5 × 10^4 Cells
[7]; PC-3 EXP#2, 3 μM, read-out: % Inhibition
  inhibition at 3 µM: 99.4%
[7]; PC-3 EXP#2, 10 μM
  inhibition at 10 µM: 99.4%
  Colonies/5 × 10^4 Cells: 1 Colonies/5 × 10^4 Cells
[7]; PC-3, two independent experiments, non-linear regression, read-out: IC50, inhibition of clonogenic growth
  IC50: 56 nM
[7]; PC-3 EXP#1, 3 μM
  Colonies/5 × 10^4 Cells: 0.5 Colonies/5 × 10^4 Cells
[7]; PC-3 EXP#2, 3 μM
  Colonies/5 × 10^4 Cells: 1 Colonies/5 × 10^4 Cells
[8]; 1 μM, BT-20 and PC-3
  mean number of residual clones forming colonies: 20.9±5.3 /5×10^4 cells
[8]; Homo sapiens, 1 μM, 4 experiments (2 PC-3, 2 BT-20), read-out: inhibition of clonogenic growth (mean±SE)
  inhibition at 1 µM: 82.6 ± 8.1%
[8]; Homo sapiens, 10 μM, BT-20 and PC-3, read-out: inhibition of clonogenic growth (mean±SE)
  inhibition at 10 µM: 99.2 ± 0.2%

## CCC1CC23[C@H]([C@H](Oc4nnc(O[C@@H](c5ccnc6ccc(OC)cc56)[C@H]5CC6CCN5CCC6(O)CC)c5ccccc45)c4ccnc5ccc(OC)cc45)N2CC[C@@H]13 (some centres unmarked) [ARES-BI-C002453]
[2]; ALL-1
  fold higher IC50 value than ARES-BI-C001453: 9.4 fold
[2]
  IC50: 7300 nM
[3]
  IC50: 1500 nM
[3]; LOUCY
  fold higher IC50 value than ARES-BI-C001453: 35.7 fold
[4]; Raji
  IC50: 16700 nM
[4]; RAJI
  fold higher IC50 value than ARES-BI-C001453: 1.9 fold

## CCC1CN2CCC1CC2C(Oc1nnc(OC(c2ccnc3ccc(OC)cc23)C2CC3CCN2CC3CC)c2ccccc12)c1ccnc2ccc(OC)cc12 (centres unmarked) [Compound C61, 1,4-Bis (9-O dihydroquinidinyl)phthalazine/hydroquinidine 1,4-phathalazinediyl diether, reference compound]
[5]
  in vitro colony formation by ALL-1 cells: abrogated the in vitro colony formation
[5]; ALL-1 EXP#1, 10 μM
  % Inhibition: >99.7%
  Colonies/5 × 10^4 Cells: 0.0 Colonies/5 × 10^4 Cells
[5]; ALL-1 EXP#2, 10 μM
  % Inhibition: >99.6%
  Colonies/5 × 10^4 Cells: 0.0 Colonies/5 × 10^4 Cells
[6]; BT-20 EXP#1, 10 μM
  % Inhibition: 45.9%
  Colonies/5 × 10^4 Cells: 53.0 Colonies/5 × 10^4 Cells
[6]; BT-20 EXP#2, 10 μM
  % Inhibition: 31.6%
  Colonies/5 × 10^4 Cells: 78.0 Colonies/5 × 10^4 Cells
[7]; PC3 cells, 10 μM
  inhibition of clonogenic growth: 67.7%
[7]; PC-3 EXP#1, 10 μM
  % Inhibition: 77.9%
  Colonies/5 × 10^4 Cells: 41.0 Colonies/5 × 10^4 Cells
[7]; PC-3 EXP#2, 10 μM
  % Inhibition: 57.5%
  Colonies/5 × 10^4 Cells: 67.0 Colonies/5 × 10^4 Cells
[8]; 10 μM, BT-20 and PC-3
  inhibition of clonogenic growth (mean±SE): 53.2±11.3%
  mean number of residual clones forming colonies: 59.8±6.3 /5×10^4 cells
